Source: the NIST ThermoML archive (doi:10.1016/j.jct.2014.07.019)

Assay: xn = mol fraction of the nth substance listed
Conditions: 100 kPa, Liquid; for speed of sound: Frequency=3 MHz, Sing-around technique in a fixed-path interferometer; for mass density: Vibrating tube method

CCCCOCC(C)O (stereo not given) [1-butoxy-2-propanol] + CCC(C)O
Conditions	mass density, 293.15 K [kg/m3]	mass density, 298.15 K [kg/m3]	mass density, 303.15 K [kg/m3]	mass density, 308.15 K [kg/m3]	mass density, 313.15 K [kg/m3]	speed of sound, 293.15 K [m/s]	speed of sound, 298.15 K [m/s]	speed of sound, 303.15 K [m/s]	speed of sound, 308.15 K [m/s]	speed of sound, 313.15 K [m/s]
x1 = 0.0517	812.712	808.614	804.434	800.162	795.809	1234.4	1217.3	1201.4	1181.6	1163.6
x1 = 0.1014	818.284	814.152	809.949	805.653	801.286	1238.8	1221.5	1205.7	1186	1168
x1 = 0.1527	823.685	819.533	815.316	811.017	806.644	1243	1225.9	1209.6	1190	1172
x1 = 0.2041	828.704	824.532	820.316	816	811.61	1246.9	1229.4	1213.3	1194	1176
x1 = 0.2815	835.699	831.499	827.23	822.897	818.493	1252.2	1234	1218.3	1199.1	1181.2
x1 = 0.3581	841.995	837.767	833.49	829.144	824.735	1256.8	1238.2	1222.6	1203.6	1185.7
x1 = 0.4421	848.377	844.12	839.804	835.438	831.018	1261.1	1242.5	1226.7	1207.9	1190
x1 = 0.5348	854.7	850.417	846.095	841.719	837.299	1265.3	1246.8	1230.6	1212	1194.1
x1 = 0.627	860.446	856.141	851.795	847.417	842.98	1268.8	1250.7	1233.8	1215.3	1197.5
x1 = 0.7213	865.799	861.469	857.116	852.712	848.267	1271.6	1254	1236.5	1218.2	1200.3
x1 = 0.8116	870.476	866.131	861.747	857.328	852.892	1274	1256.4	1238.8	1220.6	1202.8
x1 = 0.8581	872.724	868.372	863.985	859.577	855.127	1275.3	1257.5	1239.8	1221.9	1204.1
x1 = 0.9062	874.964	870.61	866.21	861.774	857.32	1276.4	1258.6	1240.8	1222.8	1205
x1 = 0.9536	877.051	872.689	868.316	863.853	859.383	1277.7	1259.7	1242	1223.9	1206.1
x1 = 1	879.031	874.632	870.204	865.737	861.241	1279	1260.9	1242.9	1224.9	1207
